These results are taken from US12157723B2, “Compounds” (CYBIN UK LTD, priority 2019, dated 2024).

Data set [1] can be described thus: Solubility of API in water (vessel cleaning note). It is filed as physicochemical.
For data set [2] the following is noted: humans, 0.05 mg/kg to 0.4 mg/kg, bolus injections or infusions; cited from earlier work.
For data set [3] the following is noted: cited from earlier work; for participants with psychiatric diagnoses whose symptoms improved following use: uncontrolled setting, self-report.
The conditions of data set [4]: without coadministration of a monoamine oxidase inhibitor; cited from earlier work.

Read-outs that look alike come from different tables or passages of the source.

As for `CN(C)CCc1c[nH]c2ccccc12.O=C(O)/C=C/C(=O)O` [API, N,N-DMT fumarate], the solubility in water result in data set [1] is given as “API highly soluble”.

Take `CN(C)CCc1c[nH]c2ccccc12` [DMT (SPL026), N,N-dimethyltryptamine]: in data set [2], the tolerability result was “well-tolerated”.

Take `COc1ccc2[nH]cc(CCN(C)C)c2c1` [Mixture 5-MeO-DMT, 5-methoxy-N,N-dimethyltryptamine]: the “individuals reporting improvements in their conditions following use” value in data set [3] (alcoholism or hazardous drinking, n=75 out of 113) is 66%. Besides, the “participants with psychiatric diagnoses whose symptoms improved following use” value in data set [3] (anxiety) is 69%; in data set [3] (depression), 77%; in data set [3] (post-traumatic stress disorder), 79%. Also, in data set [4], the oral bioavailability result is listed as “not orally bioavailable”.
